# Reference: patent US9283234B2, “Compositions and methods for suppressing endometrial proliferation” (REPROS THERAPEUTICS INC., priority 2006, dated 2016)
# Key:
# [1] = target: T1, glucocorticoid receptor (rbGR) (Oryctolagus cuniculus, UniProt P59667); assay: glucocorticoid receptor binding; parameters: species or system rabbit
# T1 construct: cytosol containing PR or GR were prepared in TEGMD buffer; from tissue; host or cells: thymus of estradiol-primed immature rabbits (cytosol)
# T1 sequence (P59667 1-772): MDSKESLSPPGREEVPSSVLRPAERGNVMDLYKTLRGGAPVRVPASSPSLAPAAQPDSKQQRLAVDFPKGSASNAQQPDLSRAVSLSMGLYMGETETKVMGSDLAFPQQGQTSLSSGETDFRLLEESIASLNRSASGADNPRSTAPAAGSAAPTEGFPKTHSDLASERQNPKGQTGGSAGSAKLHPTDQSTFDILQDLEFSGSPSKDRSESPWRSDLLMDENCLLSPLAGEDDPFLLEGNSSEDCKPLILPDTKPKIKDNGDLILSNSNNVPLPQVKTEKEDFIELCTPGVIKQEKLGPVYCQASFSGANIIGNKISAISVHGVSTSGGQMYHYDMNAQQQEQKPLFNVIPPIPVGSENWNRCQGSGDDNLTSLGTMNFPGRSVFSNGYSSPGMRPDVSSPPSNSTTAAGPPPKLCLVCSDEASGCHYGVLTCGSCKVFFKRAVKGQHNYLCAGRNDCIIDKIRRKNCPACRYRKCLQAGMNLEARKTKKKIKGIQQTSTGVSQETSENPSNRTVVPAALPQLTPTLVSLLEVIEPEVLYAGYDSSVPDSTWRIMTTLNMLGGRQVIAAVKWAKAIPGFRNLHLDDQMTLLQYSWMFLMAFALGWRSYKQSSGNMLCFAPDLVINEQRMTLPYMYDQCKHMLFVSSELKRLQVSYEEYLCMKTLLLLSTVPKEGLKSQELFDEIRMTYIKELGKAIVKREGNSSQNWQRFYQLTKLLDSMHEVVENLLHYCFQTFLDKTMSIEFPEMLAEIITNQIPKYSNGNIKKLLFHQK
# Method: Certain antiprogestins were tested in receptor-binding assays for their ability to bind rabbit progesterone receptor (rbPR) and glucocorticoid receptor (rbGR). […] For PR binding, the cytosol was incubated with 6 nM 1,2-[^3H]progesterone (50.0 Ci/mmole) and competitors were added at concentrations from 2 to 100 nM. For binding to GR, the cytosol was incubated with 6 nM 6,7-[^3H]-dexamethasone (40 Ci/mmol) and test compounds were added at concentrations from 20 to 100 nM. After overnight incubation at 4 C, bound and unbound [^3H] steroids were separated by addition of dextran-coated charcoal and centrifugation at 2100×g for 15 min at 4 C. Supernatants containing the [^3H]-steroid receptor complexes were decanted into vials containing 4 ml OPTIFLUOR scintillation fluid (Packard Instrument Co.), vortexed, equilibrated in a liquid scintillation counter for 30 minutes and then counted for 2 minutes. […] The standards for the PR and GR assays were unlabeled progesterone and dexamethasone, respectively.
# [2] = Measuring serum corticosterone in rats; conditions: progesterone, CDB-4124 and RU-486 groups compared
# [3] = tested on: rabbit progesterone receptor (rbPR) and glucocorticoid receptor (rbGR); assay: Receptor-binding assays, ratio of relative binding affinities rbPR/rbGR; conditions: ratio of relative binding affinities (RBA = EC50 of standard/EC50 of test compound x100) for rbPR and rbGR; standards progesterone, dexamethasone
# Method: Certain antiprogestins were tested in receptor-binding assays for their ability to bind rabbit progesterone receptor (rbPR) and glucocorticoid receptor (rbGR). Briefly, cytosol containing PR or GR were prepared in TEGMD buffer (10 mM Tris, pH 7.2, 1.5 mM EDTA, 0.2 mM sodium molybdate, 10% glycerol, 1 mM DTT) from uterus or thymus, respectively, of estradiol-primed immature rabbits. For PR binding, the cytosol was incubated with 6 nM 1,2-[^3H]progesterone (50.0 Ci/mmole) and competitors were added at concentrations from 2 to 100 nM. For binding to GR, the cytosol was incubated with 6 nM 6,7-[^3H]-dexamethasone (40 Ci/mmol) and test compounds were added at concentrations from 20 to 100 nM. After overnight incubation at 4 C, bound and unbound [^3H] steroids were separated by addition of dextran-coated charcoal and centrifugation at 2100×g for 15 min at 4 C. Supernatants containing the [^3H]-steroid receptor complexes were decanted into vials containing 4 ml OPTIFLUOR scintillation fluid (Packard Instrument Co.), vortexed, equilibrated in a liquid scintillation counter for 30 minutes and then counted for 2 minutes. The EC50 (Effective Concentration) for each standard curve and each of the compound curves was determined by entering the counting data into a four parameter sigmoidal computer program ([…] Immunoassay Data Reduction Program, Packard Instrument Co., Meriden, Conn.). Relative binding affinity (RBA) for each compound was calculated using the following equation: EC50 of standard/EC50 of test compound×100. The standards for the PR and GR assays were unlabeled progesterone and dexamethasone, respectively. The results of these experiments are summarized in Table 1, as a ratio of the relative binding affinities of each compound for the rbPR and rbGR receptors (rbPR/rbGR).
# [4] = tested on: rabbit uterus; assay: anti-McGinty and anti-Clauberg assays; type: in vivo; conditions: average of anti-McGinty and anti-Clauberg results relative to CDB-2914 (=1.00)
# Source text: Also given in Table 1 are the relative biological activities of the same compounds in the rabbit uterus by the anti-McGinty and anti-Clauberg assays. Compound CDB-2914 (listed at the end of the Table) was used as the control or reference compound (rabbit Biological Activity=1.00) for these experiments because results of experiments using CDB-2914 have been published before (Hild-Petito et al., 1996; Passaro et al., 1997; Reel et al., 1998; Larner et al., 2000). For the anti-McGinty test, immature female rabbits received a subcutaneous injection of 5 μg estradiol in 10% ethanol/sesame oil daily for 6 consecutive days. On day 7, animals underwent sterile abdominal surgery to ligate a 3-4 cm segment of both uterine horns. The test compound in appropriate solvent was injected intraluminally into the ligated segment of one uterine horn and vehicle alone into the other. A stimulating dose of progesterone (267 μg/day) was administered subcutaneously to each rabbit daily for the next three days to induce endometrial proliferation. All animals were sacrificed at day 10 for removal of the uterus where a segment central to the ligatures was removed and fixed in 10% neutral buffered formalin and submitted for histological processing. Five micron sections stained with hematoxylin and cosin were evaluated microscopically for the degree of endometrial glandular proliferation. The percent inhibition of endometrial proliferation for each rabbit was calculated and the mean of the group of five animals recorded. For the Anti-Clauberg test, immature female rabbits received a subcutaneous injection of 5 μg estradiol in 10% ethanol/sesame oil daily for 6 consecutive days. On day 7, animals received progesterone by subcutaneous injection (160 μg/day) and the experimental compound in appropriate vehicle orally or subcutaneously for five consecutive days. One group of rabbits received progesterone only. […] Five micron sections stained with hematoxylin and eosin were evaluated microscopically for the degree of endometrial glandular proliferation. […]
# [5] = tested on: pain associated with endometriosis; assay: Six month endometriosis study: pain diaries and symptom surveys; type: in vivo, pre-menopausal adult women; parameters: key to score for intensity of pain on a bad day: 0-10 scale; 0 = no pain, 10 = extreme pain
# Method: Pain reduction also occurred more rapidly than with the active control, LUCRIN. The response of pain to treatment in this study was analyzed in two ways. Patients in the study maintained daily pain diaries to record the severity and frequency of pain. In addition, at each office visit, patients filled out endometriosis symptom surveys that included a questionnaire that evaluated intensity of pain on a bad day on a scale of 0-10 with 10 being the greatest intensity. […] There appeared to be a dose dependent effect on pain reduction. […] This decrease in duration of pain was statistically better (p=0.0012) than the 117.8 (74%; standard deviation 51.4 days) pain free days achieved with LUCRIN. […] Patients on CDB-4124 12.5 mg and 25 mg doses had 115.9 (66%; standard deviation 69.2 days) and 133.6 (75%; standard deviation 27.4 days) pain free days, respectively. […] The 25 mg and 12.5 mg doses of CDB-4124 were not statistically different from LUCRIN. […] The intensity of pain was asked by the question: “On a scale of 1-10, with 0 being no pain and 10 being extreme pain, how intense was your pain on a bad day?” The mean scores for intensity of pain at baseline were 6.3 for the CDB-4124 groups and 6.1 for the LUCRIN group. […] At month three all four active treatment groups had statistically significant reduction in pain compared with baseline, with the following scores: 3.7 (p=0.03) for 12.5 mg CDB-4124, 3.2 (p=0.03) for 25 mg CDB-4124, 1.6 (p=0.015) for 50 mg CDB-4124 and 1.5 (p=0.016) for LUCRIN. These dose related reductions continued until month six when the values for pain intensity were 2.0 (p=0.008), 2.8 (p=0.023), 0.6 (p=0.004) and 0.7 (p=0.016), respectively. Two months after stopping treatment pain returned and was of similar intensity in all four treatment groups.
# [6] = tested on: endometrium; assay: Six month endometriosis study: endometrial thickness (ultrasound) / endometrial proliferation; type: in vivo, pre-menopausal adult women; conditions: LUPRON once per month
# Source text: Comparisons were made to both baseline and visit one ultrasound measurements of endometrial thickness. […]
# [7] = Measuring serum cortisol in rats; type: in vivo; conditions: 10 mg/kg, 21 days of chronic dosing, FIG. 1
# [8] = estrogenic, androgenic, anti-estrogenic and anti-androgenic activities
# Source text: These methods include receptor binding and in vivo bioassays such as anti-McGinty, anti-Clauberg, glucocorticoid, estrogenic, androgenic, anti-glucocorticoid (AG), anti-estrogen, and anti-androgen activities as well as post-coital and anti-ovulatory activities where in the leading compounds of the instant invention are used as a reference.
structure (smiles),measurement,setting,value
"CC(=O)O[C@]1(C(C)=O)CC[C@H]2[C@@H]3CCC4=CC(=O)CCC4=C3[C@@H](c3ccc(N(C)C)cc3)C[C@@]21C [CDB-2914, 17α-acetoxy-11β-(4-N,N-dimethylaminophenyl)-19-norpregna-4,9-dien-3,20-dione]",anti-glucocorticoid receptor activity / glucocorticoid receptor binding,[1],moderately active in glucocorticoid receptor binding
"CC(=O)[C@H]1CC[C@H]2[C@@H]3CCC4=CC(=O)CC[C@]4(C)[C@H]3CC[C@]12C [progesterone, reference compound]",differences in serum corticosterone between treatment groups,[2],No differences in serum corticosterone
"CC(=O)OCC(=O)[C@@]1(OC(C)=O)CCC2C3CCC4=CC(=NO)CCC4=C3C(c3ccc(N(C)C)cc3)C[C@@]21C (stereo partly drawn) [CDB-4206, 3-hydroxyamino-2′-acetoxy-17α-acetoxy-11β-(4 N,N-dimethylaminophenyl)-19-norpregna-4,9-diene-3,20-dione]",rbPR/rbGR,[3],1.44
same,rabbit Biol. Act.,[4],0.68
"CCNC(=O)[C@@H]1CCCN1C(=O)[C@H](CCCNC(=N)N)NC(=O)[C@H](CC(C)C)NC(=O)[C@@H](CC(C)C)NC(=O)[C@H](Cc1ccc(O)cc1)NC(=O)[C@H](CO)NC(=O)[C@H](Cc1c[nH]c2ccccc12)NC(=O)[C@H](Cc1c[nH]cn1)NC(=O)[C@@H]1CCC(=O)N1 [LUPRON, leuprolide acetate, reference compound]",percent pain free days over the 180 day treatment period,[5]; LUCRIN once per month,74%
same,distress related to pain over the six month exposure,"[5]; all doses, on average",reduced distress related to pain
same,mean score for intensity of pain on a bad day,"[5]; baseline, scale 0-10",6.1
same,score for intensity of pain on a bad day,"[5]; month six, LUCRIN once per month",0.7
same,score for intensity of pain on a bad day,"[5]; month three, LUCRIN once per month",1.5
same,Endometrium (mm) 1st dose,[6]; 1st dose,7.5 mm
same,Endometrium (mm) 3 months,[6]; 3 months,2.75 mm
same,Endometrium (mm) screening,[6]; screening,7.9 mm
"CCOCC(=O)[C@@]1(OC(C)=O)CCC2C3CCC4=CC(=NO)CCC4=C3C(c3ccc(N(C)C)cc3)C[C@@]21C (stereo partly drawn) [CDB-4226, 3-hydroxyamino-21-ethyloxy-17α-acetoxy-11β-(4 N,N-dimethylaminophenyl)-19-norpregna-4,9-diene-3,20-dione]",rbPR/rbGR,[3],1.51
same,rabbit Biol. Act.,[4],0.54
"CC(=O)OCC(=O)[C@@]1(OC(C)=O)CCC2C3CCC4=CC(=O)CCC4=C3C(c3ccc(N(C)C)cc3)C[C@@]21C (stereo partly drawn) [CDB-4059, 21-acetoxy-17α-acetoxy-1,3-(4 N,N-dimethylaminophenyl)-19-norpregna-4,9-diene-3,20-dione]",serum cortisol versus control group,[7],significantly higher levels of serum cortisol
same,"estrogenic, androgenic, anti-estrogenic, and anti-androgenic activities",[8],lack
"COCC(=O)[C@@]1(OC(C)=O)CCC2C3CCC4=CC(=NO)CCC4=C3C(c3ccc(N(C)C)cc3)C[C@@]21C (stereo partly drawn) [CDB-4205, 3-hydroxyamino-2′-methoxy-17α-acetoxy-11β-(4 N,N-dimethylaminophenyl)-19-norpregna-4,9-diene-3,20-dione]",rbPR/rbGR,[3],1.99
same,rabbit Biol. Act.,[4],1.00
"CC#C[C@]1(O)CC[C@H]2[C@@H]3CCC4=CC(=O)CCC4=C3[C@@H](c3ccc(N(C)C)cc3)C[C@@]21C [RU 486, 11β-[p-(Dimethylamino)phenyl]-17β-hydroxy-17-(1-propynyl)estra-4,9-dien-3-one, reference compound]",serum cortisol versus control group,[7],no significant difference in the levels of cortisol
same,differences in serum corticosterone between treatment groups,[2],No differences in serum corticosterone
same,anti-glucocorticoid receptor activity / glucocorticoid receptor binding,[1],moderately active in glucocorticoid receptor binding
